Patent US20100273876A1, “ANTIBACTERIAL FORMULATION COMPRISING A DIALKYL SULPHOSUCCINATE AND A CARBANILIDE ANTIBACTERIAL AGENT” (priority 2007, published 2010)

Experiments:
[1] = test system: P. acnes NCTC 737; test: Minimum bactericidal concentration (MBC) assay; format: cell-based, Propionibacterium acnes
Method: (§1) The propionibacteria were cultured and maintained on Wilkins-Chalgren Anaerobe Medium (agar and broth) at pH 6.0; all cultures were incubated anaerobically at 37° C. for 72 hours. This assay, normally carried out after an MIC assay, determines the rnininiurn concentration of a compound that is lethal to the micro-organism being tested. […] These samples were then individually sub-cultured on antibiotic-free agar medium, under the incubation conditions described above. Following incubation they were examined visually for microbial growth.

[2] = test system: P. acnes NCTC 737; test: Minimum inhibitory concentration (MIC) assay, liquid medium; format: cell-based, Propionibacterium acnes
Method: (§2) The propionibacteria were cultured and maintained on Wilkins-Chalgren Anaerobe Medium (agar and broth) at pH 6.0; all cultures were incubated anaerobically at 37° C. for 72 hours.
(§3) This is a standard international method for quantitatively assessing the antimicrobial activity of a compound in a liquid medium. The method used a sterile 96-well microtitre plate, capable of holding about 200 μl of liquid per well. The wells contained liquid culture medium and ranges of decreasing concentrations of the relevant test compound in doubling dilutions (eg, 1000, 500, 250, 125 . . . μg/ml, etc. down to 0.49 μg/ml). The culture media were as described above.
(§4) The wells were inoculated with a liquid suspension of freshly grown micro-organism and incubated under the conditions described above. After incubation, the microtitre plate was examined visually (with the aid of a light box) for cloudiness in each well, which would indicate microbial growth. The MIC value was recorded as the lowest concentration of test compound required to inhibit microbial growth, ie, the lowest concentration for which the liquid in the well remained clear.
(§5) The assays included both negative (culture medium with no micro-organisms) and positive (culture medium plus diluting solvent plus micro-organism) controls.

[3] = test system: Por. gingivalis NCTC 11834; test: (S)DDA disc diffusion; format: cell-based, Porphyromonas gingivalis; conditions: for SDDA with TCC: 200 μg DOS salt + 200 μg TCC on one disc; for DDA: 200 μg per disc
Method: (§6) The P. gingivalis strains were cultured and maintained on Wilkins-Chalgren Anaerobe Medium (agar and broth) at pH 7.0; all cultures were incubated anaerobically at 37° C. for 5-7 days.
(§7) A sterile paper disc was impregnated with a sample of the test compound in a suitable solvent and 30 minutes allowed for the solvents to evaporate (where possible). The disc was then placed on an agar plate onto which the test micro-organism had been inoculated. The plate was then incubated under the conditions described above, following which it was examined visually for signs of microbial growth. If the test compound had antimicrobial activity, a circular zone of no growth would be obtained around the disc. The diameter of this zone of “inhibition” was measured using a ProtoCOL™ automated zone sizer (Synbiosis, Cambridge, UK). In general, a greater diameter and/or area of the zone of inhibition indicates a greater antimicrobial activity in the relevant test compound, although other factors such as test compound mobility through the agar gel may also influence the result.
(§8) Two test a compounds A and B were placed on a single paper disc and the above described DDA procedure repeated. An increase in diameter of the zone of inhibition, compared to the greater of the zone diameters for the two compounds individually, was taken to indicate potential antimicrobial synergy. In practical terms, an increase of greater than 5 mm could be treated as significant.
(§9) For the (S)DDA experiments; 200 μg of the DOS salts and/or the TCC were loaded onto each disc for Por. gingivalis experiments. For the Strep. mutans experiments, 200 μg of the TCC and 50 μg of DOSS were used on each disc. All the experiments were conducted in triplicate.

[4] = test system: Por. gingivalis NCTC 11834; test: MBC assay; format: cell-based, Porphyromonas gingivalis
Method: as §1, with “P. gingivalis strains” for “propionibacteria”, “7.0;” for “6.0;”, “5-7 days.” for “72 hours.”

[5] = test system: Strep. mutans ATCC 25175; test: MBC assay; format: cell-based, Streptococcus mutans
Method: as §1, with “S. mutans was” for “propionibacteria were”, “7.0 supplemented with 1 g/L glucose;” for “6.0;”, “incubated” for “incubated anaerobically”, “48 h in an atmosphere containing 5% CO2.” for “72 hours.”

[6] = test system: Por. gingivalis NCTC 11834; test: MIC assay, liquid medium; format: cell-based, Porphyromonas gingivalis
Method: as §6, §3, §4, §5

[7] = test system: P. acnes NCTC 737; test: Disc diffusion / synergy disc diffusion assay ((S)DDA); format: cell-based, Propionibacterium acnes; conditions: for SDDA area increase / SDDA increase: 200 μg DOS salt + 200 μg TCC; for SDDA with TCC: 200 μg DOS salt + 200 μg TCC on one disc; for SDDA increase: vs greater single-compound zone; for DDA + salt: sodium chloride 100 mM; for DDA + lipid: triolein 1% v/v
Method: as §2, §7, §8
Both the DDA and the SDDA test may be carried out using an agar gel supplemented with lipid and/or salt to simulate some of the major components present in human skin and to assess whether these substances might reduce the antimicrobial activity observed for the test compound. Performance under these conditions can provide a more reliable indication of activity on topical application. The supplements used in Examples 1, 11, 12 and 13 below were lipid (either Tween™ 80 at 1% v/v (Example 1) or triolein at 1% v/v (Examples 11, 12 and 13) and sodium chloride (100 mM).

[8] = test system: Strep. mutans ATCC 25175; test: (S)DDA disc diffusion; format: cell-based, Streptococcus mutans; conditions: 200 μg per disc
Method: (§10) The S. mutans was cultured and maintained on Wilkins-Chalgren Anaerobe Medium (agar and broth) at pH 7.0 supplemented with 1 g/L glucose; all cultures were incubated at 37° C. for 48 h in an atmosphere containing 5% CO2.
as §7, §8, §9

[9] = test system: Strep. mutans ATCC 25175; test: MIC assay, liquid medium; format: cell-based, Streptococcus mutans
Method: as §10, §3, §4, §5

[10] = test system: Strep. mutans ATCC 25175; test: Biofilm disruption assay on hydroxyapatite discs; format: cell-based, Streptococcus mutans; conditions: Strep. mutans ATCC 25175 biofilm, DOSS 1.0% (w/v), CHX 0.2% (w/v)
Method: (§11) This assay was designed to determine quantitatively the relative potency of a test compound to disrupt (effectively kill) biofilms formed by a test organism on hydroxyapatite (HA) discs.
(§12) Biofilms were formed on sterile dense ceramic HA discs 7 mm diameter x 1.8 mm thick (Clarkson Chromatography) by placing the discs in the appropriate liquid media (as described above) inoculated with the test organism (0.5×10^8 cfu/ml). The HA discs were then incubated at 37° C. for ˜48 h in a 5% CO2 atmosphere (for Strep. mutans ATCC 25175) or ˜96 h under anaerobic conditions (for Por. gingivalis 381). Following the incubation period the supernatant was removed from the wells containing the HA discs and the discs were washed×3 with fresh media to ensure all planktonic cells were removed. The HA discs were then transferred to sterile bijoux bottles containing 1 ml of phosphate buffered saline (PBS) plus test compound(s) at the required concentration. After a set time period (usually 2 and/or 5 min), the HA disc was transferred to another sterile bijoux containing 1 ml of fresh growth media. Adherent cells were then harvested by vigorous vortexing for 2 minutes. A sample was then taken, serially diluted 10-fold in fresh growth media and inoculated onto agar plates in triplicate. Untreated HA discs, and HA discs added to PBS containing only the solvents used to dissolve the test compound(s), acted as controls.
(§13) The plates were then incubated as described above and subsequently examined visually for growth. Colonies were counted at an appropriate serial dilution (5-50 individual colonies visible) with the aid of a colony counter. These measurements were then converted to numbers of colony forming units (cfu), using the formula: cfu/ml=number of colonies×serial dilution factor×100 (as only a 10 μl sample was taken).
(§14) These cfu values were then converted into log10 values and plotted graphically against time of sample removal.
(§15) At each time point, samples were assessed in triplicate; the final cfu/ml value was an average (mean) of the three readings.
(§16) Biofilm disruption assays, as described above, were carried out using DOSS as the test compound and chlorhexidine (CHX) as a positive control. For these experiments, the DOSS was tested at 0.5% w/v against Por. gingivalis and 1% w/v against Strep. mutans. The ahlorhexidine was tested at a concentration of 0.2% w/v against both micro-organisms. The DOSS was dissolved in ethanol and the chlorhexidine in distilled water. All the experiments were conducted in triplicate.

[11] = test system: Por. gingivalis 381; test: Biofilm disruption assay on hydroxyapatite discs; format: cell-based, Porphyromonas gingivalis; conditions: Por. gingivalis 381 biofilm, DOSS 0.5% (w/v), CHX 0.2% (w/v)
Method: as §11, §12, §13, §14, §15, §16

[12] = 200 μg of each test compound per disc (Example 2)
[13] = 200 μg per disc, pH 6.0, single replicates

MIC [2] | MIC/MBC ratio [4] | MIC/MBC ratio [5] | MIC [6] | SMILES | MBC [1] | MIC/MBC ratio [1] | SDDA area increase [3] | SDDA increase [3] | SDDA with TCC [3] | DDA [3] | MBC [4] | MBC [5] | SDDA area increase [7] | SDDA with TCC [7] | SDDA increase [7] | DDA [7, 12] | DDA [7, 13] | DDA + salt ([7]; 200 μg per disc, pH 6.0) | DDA + lipid ([7]; 200 μg per disc, pH 6.0) | DDA [8] | also measured
15.6 µg/mL | 0.5 | 0.5 | 3.9 µg/mL | CCCCC(CC)COC(=O)CC(C(=O)OCC(CC)CCCC)S(=O)(=O)[O-].CCCCC(CC)COC(=O)CC(C(=O)OCC(CC)CCCC)S(=O)(=O)[O-].[Ca+2] (stereo not drawn) [DOS calcium salt] | >31.25 µg/mL | <0.5 | 38.64% | 9.24 mm | 61.31 mm | 52.07 mm | 7.8 µg/mL | 31.25 µg/mL | 128.93% | 36.16 mm | 12.26 mm | 23.9 mm | 44.71 mm | 43.16 mm | 49.36 mm | 32.13 mm | MIC [9]: 15.6 µg/mL
7.8 µg/mL | 0.5 | 0.5 | 3.9 µg/mL | CCCCC(CC)COC(=O)CC(C(=O)OCC(CC)CCCC)S(=O)(=O)[O-].[K+] (stereo not drawn) [DOS potassium salt] | 62.5 µg/mL | 0.125 | 43.78% | 10.18 mm | 61.31 mm | 51.13 mm | 7.8 µg/mL | 31.25 µg/mL | 99.37% | 36.68 mm | 10.7 mm | 25.91 mm | 46.57 mm | 46.26 mm | 48.12 mm | 35.28 mm | MIC [9]: 15.6 µg/mL
 |  |  |  | [H]/N=C(\N/C(=N/[H])NCCCCCCNC(=N)NC(=N)Nc1ccc(Cl)cc1)Nc1ccc(Cl)cc1 [CHX, chlorhexidine] |  |  |  |  |  |  |  |  |  |  |  |  |  |  |  |  | Viable cell counts ([10]; 0 min): 6.56 log10 cfu/ml; Viable cell counts ([10]; 2 min): 6.12 log10 cfu/ml; Viable cell counts ([10]; 5 min): 5.99 log10 cfu/ml; Viable cell counts ([11]; 0 min): 7.53 log10 cfu/ml; Viable cell counts ([11]; 2 min): 6.50 log10 cfu/ml; Viable cell counts ([11]; 5 min): 6.76 log10 cfu/ml
